Measurements from US20220331303A1, “USE OF AN OREXIN 2 RECEPTOR AGONIST FOR THE TREATMENT OF EXCESSIVE SLEEPINESS” (Takeda Pharmaceutical Company Limited, priority 2019, published 2022).
“And” between values parts separate entries of the source, which are not always exact repeats. Equal entries are not always repeated.

Tested on: sleep-deprived healthy volunteers
Assay: Maintenance of wakefulness test (MWT) in sleep-deprived healthy volunteers
Format: in vivo, human
Conditions: for Stage N2 Duration (MWT), LS Mean Difference vs placebo / Total Microsleeps (MWT), LS Mean / Total Microsleeps (MWT), LS Mean Difference vs placebo / Duration Total Microsleeps (MWT), LS Mean / Duration Total Microsleeps (MWT), LS Mean Difference vs placebo / Latency to Sleep Onset on MWT, LS Mean / Latency to Sleep Onset on MWT, LS Mean Difference vs placebo / Stage N1 Duration (MWT), LS Mean / Stage N1 Duration (MWT), LS Mean Difference vs placebo / Stage N2 Duration (MWT), LS Mean: Compound A 112 mg (HD)
Method: The primary objective of this study was to determine the effect of Compound A (methyl (2R,3S)-3-((methylsulfonyl)amino)-2-(((cis-4-phenylcyclohexyl)oxy)methyl)piperidine-1-carboxylate), 44 mg (low dose [LD]) and 112 mg (high dose [HD]), after a single IV dose (compared to placebo) on promoting wakefulness as measured by sleep latency on the MWT (performed at approximately 2, 4, 6, and 8 hours post-dosing starting at approximately 1:00 AM and then at approximate times of 3:00, 5:00, and 7:00 AM) in sleep-deprived healthy volunteers.
This was a phase 1b, single-center, randomized, double-blind, double-dummy, placebo- and active-controlled, 4-period Williams design crossover study to evaluate the PK, PD, and safety of Compound A in sleep-deprived healthy volunteers. Compound A was administered as a 9-hour IV infusion.
Healthy adult male subjects aged 18 to 40 years, inclusive, who satisfied the inclusion and exclusion criteria were enrolled in the trial. On Day 1 of treatment period 1, eligible subjects were equally randomized to 4 treatment sequence groups (sequence 1 to 4) which defined the order of administration for Compound A LD, Compound A HD (both delivered as a 9-hour IV infusion), modafinil 300 mg, and placebo.
During the day before dosing on Day 1, participants were administered the KSS at scheduled timepoints. A practice MWT session was performed on Day 1 treatment period 1 (only once during the entire study) to familiarize subjects with the procedures. Study drug was administered in the clinic in the evening on Day 1 of each treatment period. Subjects underwent the MWT and KSS at specified timepoints after the start of the infusion. Subjects were required to stay awake between the MWT tests. Following completion of the IV infusion on Day 2, subjects underwent an additional MWT test. When the final MWT test and cognitive testing were completed, subjects were allowed to sleep (recovery sleep) for approximately 6 hours. PSG recording was collected during this time. Subjects were discharged from the unit after completion on Day 2 with continuing actigraphy upon discharge (to begin on Day −6 before the next treatment period). The interval between each subsequent treatment period was at least 7 days to ensure that the subject's circadian rhythm had returned to a normal cycle. Subject's vital signs, including BP, were monitored during the dosing and testing period. Blood samples for determination of Compound A plasma concentrations were collected at specified timepoints on Days 1 and 2 of each treatment period. Subjects completed the Columbia-Suicide Severity Rating Scale (C-SSRS) during screening, before study drug administration, and before discharge on Day 2 of each treatment period.
Primary endpoint: Latency for each MWT, defined as time to sleep onset.

[1] = average overall during infusion
[2] = Compound A 112 mg, after the end of infusion (1 hour post end of infusion)
[3] = HD: Compound A 112 mg, 2 HOURS POST INFUSION START
[4] = HD: Compound A 112 mg, 4 HOURS POST INFUSION START
[5] = HD: Compound A 112 mg, 6 HOURS POST INFUSION START
[6] = HD: Compound A 112 mg, 8 HOURS POST INFUSION START
[7] = HD: Compound A 112 mg, Average Overall, MWT during infusion
[8] = LD: Compound A 44 mg, 2 HOURS POST INFUSION START
[9] = LD: Compound A 44 mg, 4 HOURS POST INFUSION START
[10] = LD: Compound A 44 mg, 6 HOURS POST INFUSION START
[11] = LD: Compound A 44 mg, 8 HOURS POST INFUSION START
[12] = LD: Compound A 44 mg, Average Overall, MWT during infusion

COC(=O)N1CCC[C@H](NS(C)(=O)=O)[C@@H]1CO[C@H]1CC[C@@H](c2ccccc2)CC1 [Compound A, methyl (2R,3S)-3-((methylsulfonyl)amino)-2-(((cis-4-phenylcyclohexyl)oxy)methyl)piperidine-1-carboxylate]
Stage N2 Duration (MWT), LS Mean Difference vs placebo (4 hours post infusion start): -1.15 min
Total Microsleeps (MWT), LS Mean (4 hours post infusion start): 0.00
Total Microsleeps (MWT), LS Mean Difference vs placebo (4 hours post infusion start): −2.35
Duration Total Microsleeps (MWT), LS Mean (6 hours post infusion start): 0.43 s
Duration Total Microsleeps (MWT), LS Mean Difference vs placebo (6 hours post infusion start): -6.97 s
Latency to Sleep Onset on MWT, LS Mean (6 hours post infusion start): 38.36 min
Latency to Sleep Onset on MWT, LS Mean Difference vs placebo (6 hours post infusion start): 32.21 min
Stage N1 Duration (MWT), LS Mean (6 hours post infusion start): 0.07 min
Stage N1 Duration (MWT), LS Mean Difference vs placebo (6 hours post infusion start): -1.08 min
Stage N2 Duration (MWT), LS Mean (6 hours post infusion start): 0.06 min
Stage N2 Duration (MWT), LS Mean Difference vs placebo (6 hours post infusion start): -0.44 min
Total Microsleeps (MWT), LS Mean (6 hours post infusion start): 0.11
Total Microsleeps (MWT), LS Mean Difference vs placebo (6 hours post infusion start): −1.14
Duration Total Microsleeps (MWT), LS Mean (8 hours post infusion start): 5.21 s
Duration Total Microsleeps (MWT), LS Mean Difference vs placebo (8 hours post infusion start): -2.59 s
Latency to Sleep Onset on MWT, LS Mean (8 hours post infusion start): 36.86 min
Latency to Sleep Onset on MWT, LS Mean Difference vs placebo (8 hours post infusion start): 33.33 min
Stage N1 Duration (MWT), LS Mean (8 hours post infusion start): 0.18 min
Stage N1 Duration (MWT), LS Mean Difference vs placebo (8 hours post infusion start): -0.97 min
Stage N2 Duration (MWT), LS Mean (8 hours post infusion start): 0.28 min
Stage N2 Duration (MWT), LS Mean Difference vs placebo (8 hours post infusion start): -0.82 min
Total Microsleeps (MWT), LS Mean (8 hours post infusion start): 1.11
Total Microsleeps (MWT), LS Mean Difference vs placebo (8 hours post infusion start): −0.19
Duration Total Microsleeps (MWT), LS Mean [1]: 1.40 s
Duration Total Microsleeps (MWT), LS Mean Difference vs placebo [1]: -7.68 s
Latency to Sleep Onset on MWT, LS Mean [1]: 38.82 min and 38.82 (1.955) min
Latency to Sleep Onset on MWT, LS Mean Difference vs placebo [1]: 30.21 min and 30.2 min and 30.21 (2.682) min
Stage N1 Duration (MWT), LS Mean [1]: 0.04 min
Stage N1 Duration (MWT), LS Mean Difference vs placebo [1]: -1.23 min
Stage N2 Duration (MWT), LS Mean [1]: 0.09 min
Stage N2 Duration (MWT), LS Mean Difference vs placebo [1]: -0.81 min
Total Microsleeps (MWT), LS Mean [1]: 0.31
Latency to Sleep Onset on MWT, LS Mean (SE) [2]: 2.36 (2.241)
Latency to Sleep Onset on MWT, LS Mean Difference vs placebo, Estimate (SE) [2]: −2.29 (2.752)
Total Sleep Time LS Mean [3]: 0.02 min
Total Sleep Time LS Mean Difference vs Placebo Estimate [3]: -2.71 min
Total Wake Time LS Mean [3]: 39.89 min
Total Wake Time LS Mean Difference vs Placebo Estimate [3]: 22.17 min
Total Sleep Time LS Mean [4]: -0.01 min
Total Sleep Time LS Mean Difference vs Placebo Estimate [4]: -3.16 min
Total Wake Time LS Mean [4]: 40.08 min
Total Wake Time LS Mean Difference vs Placebo Estimate [4]: 30.03 min
Total Sleep Time LS Mean [5]: 0.21 min
Total Sleep Time LS Mean Difference vs Placebo Estimate [5]: -2.01 min
Total Wake Time LS Mean [5]: 38.86 min
Total Wake Time LS Mean Difference vs Placebo Estimate [5]: 32.44 min
Total Sleep Time LS Mean [6]: 0.57 min
Total Sleep Time LS Mean Difference vs Placebo Estimate [6]: -2.35 min
Total Wake Time LS Mean [6]: 37.36 min
Total Wake Time LS Mean Difference vs Placebo Estimate [6]: 33.71 min
Total Sleep Time LS Mean [7]: 0.20 min
Total Sleep Time LS Mean Difference vs Placebo Estimate [7]: -2.56 min
Total Wake Time LS Mean [7]: 39.05 min
Total Wake Time LS Mean Difference vs Placebo Estimate [7]: 29.59 min
Total Sleep Time LS Mean [8]: 0.47 min
Total Sleep Time LS Mean Difference vs Placebo Estimate [8]: -2.26 min
Total Wake Time LS Mean [8]: 35.73 min
Total Wake Time LS Mean Difference vs Placebo Estimate [8]: 18.00 min
Total Sleep Time LS Mean [9]: 1.27 min
Total Sleep Time LS Mean Difference vs Placebo Estimate [9]: -1.88 min
Total Wake Time LS Mean [9]: 32.42 min
Total Wake Time LS Mean Difference vs Placebo Estimate [9]: 22.37 min
Total Sleep Time LS Mean [10]: 4.69 min
Total Sleep Time LS Mean Difference vs Placebo Estimate [10]: 2.47 min
Total Wake Time LS Mean [10]: 21.78 min
Total Wake Time LS Mean Difference vs Placebo Estimate [10]: 15.36 min
Total Sleep Time LS Mean [11]: 5.63 min
Total Sleep Time LS Mean Difference vs Placebo Estimate [11]: 2.71 min
Total Wake Time LS Mean [11]: 13.37 min
Total Wake Time LS Mean Difference vs Placebo Estimate [11]: 9.72 min
Total Sleep Time LS Mean [12]: 3.02 min
Total Sleep Time LS Mean Difference vs Placebo Estimate [12]: 0.26 min
Total Wake Time LS Mean [12]: 25.83 min
Total Wake Time LS Mean Difference vs Placebo Estimate [12]: 16.36 min
Compound A plasma concentration at which magnitude of wake-promoting effects appeared to diminish over time (sleep latency vs plasma concentration by MWT session (FIG. 8)): less than 200 ng/mL
